In the supplement of paper PMC10307832:

Tests used:
Assay in all cases: relative viability (nuclei count vs DMSO), 5 days (fraction); higher = more cells survive
Shikonin + Palbociclib = compound: CC(C)=CC[C@@H](O)C1=CC(=O)c2c(O)ccc(O)c2C1=O [Shikonin] + CC(=O)c1c(C)c2cnc(Nc3ccc(N4CCNCC4)cn3)nc2n(C2CCCC2)c1=O [Palbociclib] (partner 0.5 µM)
Summary of the method: (§1)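 Lung cancer cell lines in 1536-well plates got either a single drug or a fixed anchor-drug dose together with five library-drug doses (not always all listed) in √10 steps, by pin tool, on the day after seeding. Nuclei were counted after 5 days, and relative viability is the treated-to-vehicle ratio of nuclei counts. Values are medians of duplicate plates.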

Shikonin + Navitoclax = compound: CC(C)=CC[C@@H](O)C1=CC(=O)c2c(O)ccc(O)c2C1=O [Shikonin] + CC1(C)CCC(c2ccc(Cl)cc2)=C(CN2CCN(c3ccc(C(=O)NS(=O)(=O)c4ccc(N[C@H](CCN5CCOCC5)CSc5ccccc5)c(S(=O)(=O)C(F)(F)F)c4)cc3)CC2)C1 [Navitoclax] (partner 0.5 µM)
Summary of the method: as §1

[1] = compound: CC(C)N(CCCNC(=O)Nc1ccc(C(C)(C)C)cc1)C[C@H]1O[C@@H](n2ccc3c(N)ncnc32)[C@H](O)[C@@H]1O + C[C@@H](Oc1cc(-c2cnn(C3CCNCC3)c2)cnc1N)c1c(Cl)ccc(F)c1Cl [Crizotinib] (partner 1 µM)
Summary of the method: as §1

[2] = compound: CC(C)N(CCCNC(=O)Nc1ccc(C(C)(C)C)cc1)C[C@H]1O[C@@H](n2ccc3c(N)ncnc32)[C@H](O)[C@@H]1O + C[C@]1(O)C[C@@H](c2nc(-c3ccc4ccc(-c5ccccc5)nc4c3)c3c(N)nccn32)C1 [Linsitinib] (partner 1 µM)
Summary of the method: as §1

| Cell Line | relative viability (Shikonin + Palbociclib; first compound 0.01 µM) | relative viability (Shikonin + Palbociclib; first compound 0.1 µM) | relative viability (Shikonin + Palbociclib; first compound 0.3162 µM) | relative viability (Shikonin + Palbociclib; first compound 1 µM) | relative viability (Shikonin + Navitoclax; first compound 0.01 µM) | relative viability (Shikonin + Navitoclax; first compound 0.1 µM) | relative viability (Shikonin + Navitoclax; first compound 0.3162 µM) | relative viability (Shikonin + Navitoclax; first compound 1 µM) | relative viability ([1]; first compound 0.08 µM) | relative viability ([1]; first compound 0.253 µM) | relative viability ([1]; first compound 0.8 µM) | relative viability ([1]; first compound 2.53 µM) | relative viability ([1]; first compound 8 µM) | relative viability ([2]; first compound 0.08 µM) | relative viability ([2]; first compound 0.253 µM) | relative viability ([2]; first compound 0.8 µM) | relative viability ([2]; first compound 2.53 µM) | relative viability ([2]; first compound 8 µM) |
| --- | --- | --- | --- | --- | --- | --- | --- | --- | --- | --- | --- | --- | --- | --- | --- | --- | --- | --- |
| NCI-H838 | 0.231 | 0.246 | 0.197 | 0.243 | 1.12 | 1.25 | 1.28 | 1.2 | 0.796 | 0.873 | 0.91 | 0.778 | 0.759 | 0.938 | 0.952 | 0.99 | 1.01 | 0.875 |
| NCI-H1355 | 0.421 | 0.419 | 0.383 | 0.398 | 0.81 | 0.939 | 0.995 | 0.983 | 1.01 | 1.08 |  | 1.09 | 0.891 | 0.751 | 0.768 |  | 0.859 | 0.843 |
| NCI-H1437 | 0.328 | 0.309 | 0.268 | 0.303 | 1.14 | 1.09 | 1.14 | 1.12 | 0.924 | 0.923 | 0.962 | 0.899 | 0.898 | 0.974 | 1.03 | 1.16 | 1.05 | 0.936 |
| NCI-H1651 | 0.553 | 0.522 | 0.544 | 0.523 | 1.03 | 0.98 | 1.01 | 1.06 | 0.838 | 0.836 | 0.859 | 0.824 | 0.876 | 0.99 | 0.983 | 0.965 | 1.11 | 0.987 |
| NCI-H1666 | 0.648 | 0.664 | 0.617 | 0.599 | 0.923 | 1.02 | 0.962 | 0.723 | 1.02 | 0.983 | 0.953 | 1.02 | 0.76 | 0.794 | 0.925 | 0.859 | 0.85 | 0.781 |
| NCI-H1734 | 0.319 | 0.38 | 0.323 | 0.308 | 0.941 | 0.83 | 0.949 | 0.74 | 0.644 | 0.656 | 0.728 | 0.649 | 0.605 | 0.833 | 0.862 | 0.88 | 0.901 | 0.874 |
| NCI-H1755 | 0.463 | 0.443 | 0.432 | 0.482 | 1.04 | 0.988 | 1.14 | 1.07 | 0.841 | 0.9 | 0.889 | 0.832 | 0.73 | 1.01 | 0.997 | 0.894 | 0.916 | 0.836 |
| NCI-H1792 | 0.717 | 0.493 | 0.729 | 0.7 | 0.607 | 0.639 | 0.58 | 0.778 | 0.975 | 0.919 | 1.01 | 0.915 | 1.03 | 0.534 | 0.503 | 0.393 | 0.52 | 0.535 |
| NCI-H1915 | 0.535 | 0.521 | 0.525 | 0.645 | 0.719 | 0.793 | 0.795 | 0.847 | 0.937 | 0.879 | 0.768 | 0.863 | 0.793 | 1.13 | 1.15 | 1.08 | 1.06 | 1.03 |
